According to patent US10544143B2, “4-azaindole compounds” (BRISTOL-MYERS SQUIBB COMPANY, priority 2017, dated 2020):

Columns and labels:
[1] = target: human TLR9 (Homo sapiens (Human), UniProt Q9NR96); test: TLR9 inhibition reporter assay (HEK-Blue SEAP); settings: read-out: TLR9 IC50; HEK-Blue cells overexpressing human TLR9, SEAP reporter, ODN2006 5 nM;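 note: SEAP driven by an IFN-β minimal promoter with NF-κB and AP-1 sites, read after 22 h, compounds dosed 0.05 nM–50 µM, inhibition scaled between agonist plus DMSO and reference-inhibitor wells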
[2] = target: human TLR8 (Homo sapiens (Human), UniProt Q9NR97); test: TLR8 inhibition reporter assay (HEK-Blue SEAP); settings: read-out: TLR8 IC50; HEK-Blue cells overexpressing human TLR8, SEAP reporter, R848 15.9 μM;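 note: SEAP driven by IFN-β minimal promoter carrying NF-κB and AP-1 sites, compounds dosed 0.05 nM to 50 µM for 22 h, inhibition scaled between agonist-plus-DMSO and reference-inhibitor wells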
[3] = target: human TLR7 (Homo sapiens (Human), UniProt Q9NYK1); test: TLR7 inhibition reporter assay (HEK-Blue SEAP); assay type: cell-based; settings: HEK-Blue cells overexpressing human TLR7, SEAP reporter, gardiquimod 7.5 μM
human TLR7, sequence (Q9NYK1 27-1049): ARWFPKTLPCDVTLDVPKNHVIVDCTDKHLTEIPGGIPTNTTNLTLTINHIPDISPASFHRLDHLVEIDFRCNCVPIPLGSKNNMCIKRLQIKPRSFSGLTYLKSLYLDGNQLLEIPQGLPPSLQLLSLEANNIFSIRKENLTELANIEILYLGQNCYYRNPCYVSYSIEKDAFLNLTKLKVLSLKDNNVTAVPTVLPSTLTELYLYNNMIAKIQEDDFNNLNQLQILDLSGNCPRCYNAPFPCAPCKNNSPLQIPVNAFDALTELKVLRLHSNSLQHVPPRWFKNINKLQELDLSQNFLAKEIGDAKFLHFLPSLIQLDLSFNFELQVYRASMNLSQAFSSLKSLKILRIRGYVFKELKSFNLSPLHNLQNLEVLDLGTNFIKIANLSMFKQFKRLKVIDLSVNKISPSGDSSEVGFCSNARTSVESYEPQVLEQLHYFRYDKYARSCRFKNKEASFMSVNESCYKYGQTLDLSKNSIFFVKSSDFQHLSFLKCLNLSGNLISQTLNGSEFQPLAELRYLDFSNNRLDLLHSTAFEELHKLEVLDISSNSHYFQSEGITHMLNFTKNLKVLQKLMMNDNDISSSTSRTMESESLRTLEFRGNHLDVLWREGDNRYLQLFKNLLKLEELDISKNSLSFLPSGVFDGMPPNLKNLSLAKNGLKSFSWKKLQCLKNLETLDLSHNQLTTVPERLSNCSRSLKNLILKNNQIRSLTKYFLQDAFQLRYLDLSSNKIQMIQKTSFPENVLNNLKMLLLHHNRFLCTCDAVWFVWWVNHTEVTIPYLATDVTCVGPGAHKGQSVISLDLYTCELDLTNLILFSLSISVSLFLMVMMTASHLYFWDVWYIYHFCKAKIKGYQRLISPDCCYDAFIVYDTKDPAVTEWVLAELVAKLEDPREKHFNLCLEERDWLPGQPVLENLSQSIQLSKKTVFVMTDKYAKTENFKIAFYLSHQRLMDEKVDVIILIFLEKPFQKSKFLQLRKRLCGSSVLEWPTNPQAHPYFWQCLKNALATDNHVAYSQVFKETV

human TLR8, sequence (Q9NR97 27-1041): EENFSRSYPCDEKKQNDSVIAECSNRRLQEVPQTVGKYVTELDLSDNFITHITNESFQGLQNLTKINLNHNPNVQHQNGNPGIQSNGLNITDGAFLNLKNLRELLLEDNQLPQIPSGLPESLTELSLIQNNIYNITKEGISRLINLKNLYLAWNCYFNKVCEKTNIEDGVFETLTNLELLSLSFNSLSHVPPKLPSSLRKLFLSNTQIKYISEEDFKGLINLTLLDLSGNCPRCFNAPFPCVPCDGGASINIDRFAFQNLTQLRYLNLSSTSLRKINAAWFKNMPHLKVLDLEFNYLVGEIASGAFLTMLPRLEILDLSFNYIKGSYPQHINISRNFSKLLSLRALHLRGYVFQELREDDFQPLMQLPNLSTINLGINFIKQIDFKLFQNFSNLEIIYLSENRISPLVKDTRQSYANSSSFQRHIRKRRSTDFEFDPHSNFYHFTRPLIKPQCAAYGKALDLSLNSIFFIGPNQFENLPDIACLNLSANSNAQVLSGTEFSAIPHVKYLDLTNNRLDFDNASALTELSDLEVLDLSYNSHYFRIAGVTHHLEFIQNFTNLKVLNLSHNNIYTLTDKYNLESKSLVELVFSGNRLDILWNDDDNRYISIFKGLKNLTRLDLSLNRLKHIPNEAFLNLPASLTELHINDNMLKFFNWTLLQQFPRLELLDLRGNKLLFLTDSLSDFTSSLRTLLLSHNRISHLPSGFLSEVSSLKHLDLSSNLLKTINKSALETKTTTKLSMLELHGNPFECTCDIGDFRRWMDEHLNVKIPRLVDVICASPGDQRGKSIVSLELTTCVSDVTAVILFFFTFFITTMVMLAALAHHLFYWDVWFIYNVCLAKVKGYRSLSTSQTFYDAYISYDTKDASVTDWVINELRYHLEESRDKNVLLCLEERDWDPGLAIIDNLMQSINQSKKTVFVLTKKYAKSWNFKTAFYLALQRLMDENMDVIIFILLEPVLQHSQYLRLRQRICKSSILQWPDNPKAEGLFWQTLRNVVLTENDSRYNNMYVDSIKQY
human TLR9, sequence (Q9NR96 26-1032): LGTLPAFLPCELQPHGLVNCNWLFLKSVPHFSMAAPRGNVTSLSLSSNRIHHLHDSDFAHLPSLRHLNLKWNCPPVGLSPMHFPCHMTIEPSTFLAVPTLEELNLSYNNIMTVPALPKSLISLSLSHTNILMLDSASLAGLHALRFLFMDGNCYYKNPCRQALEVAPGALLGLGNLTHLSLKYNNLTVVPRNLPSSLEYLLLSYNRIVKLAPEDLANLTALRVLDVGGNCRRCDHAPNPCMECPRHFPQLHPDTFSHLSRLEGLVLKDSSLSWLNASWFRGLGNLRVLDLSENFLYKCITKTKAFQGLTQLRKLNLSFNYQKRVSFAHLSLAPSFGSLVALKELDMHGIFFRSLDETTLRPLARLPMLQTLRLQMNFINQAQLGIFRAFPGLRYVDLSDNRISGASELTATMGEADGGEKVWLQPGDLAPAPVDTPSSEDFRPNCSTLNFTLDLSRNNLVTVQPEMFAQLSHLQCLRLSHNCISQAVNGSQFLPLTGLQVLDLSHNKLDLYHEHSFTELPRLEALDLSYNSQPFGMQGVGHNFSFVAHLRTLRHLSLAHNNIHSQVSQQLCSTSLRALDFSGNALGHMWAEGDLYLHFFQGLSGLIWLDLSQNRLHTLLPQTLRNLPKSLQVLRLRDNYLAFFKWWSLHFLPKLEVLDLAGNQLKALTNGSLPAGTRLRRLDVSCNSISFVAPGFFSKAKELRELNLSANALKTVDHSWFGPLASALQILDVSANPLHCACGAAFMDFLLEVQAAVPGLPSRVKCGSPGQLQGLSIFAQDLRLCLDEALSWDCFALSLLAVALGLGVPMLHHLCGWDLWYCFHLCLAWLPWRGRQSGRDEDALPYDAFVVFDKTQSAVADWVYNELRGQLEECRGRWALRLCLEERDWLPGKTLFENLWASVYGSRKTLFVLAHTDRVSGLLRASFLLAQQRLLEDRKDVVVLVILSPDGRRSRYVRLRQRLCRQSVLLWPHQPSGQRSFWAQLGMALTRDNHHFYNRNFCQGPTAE

Compound | IC50 [1] [nM] | IC50 [2] [nM] | IC50 [3] [nM]
COc1cc(-c2[nH]c3ccc(C4CN(C)CCO4)nc3c2C(C)C)cn2ncnc12 (stereo not drawn) [Example 661] | 13900 | 5.5 | 2.3
Cc1c(-c2[nH]c3ccc(C4CNCCO4)nc3c2C(C)C)cn2ncnc2c1C (stereo not drawn) [Example 662] | 9030 | 1 | 1.8
Cc1cc(-c2[nH]c3ccc(C4CN(C)CCO4)nc3c2C(C)C)cn(C)c1=O (stereo not drawn) [Example 665] | > 50000 | 17 | 34
COc1cc(-c2[nH]c3ccc(C4CNCCO4)nc3c2C(C)C)cn2ncnc12 (stereo not drawn) [Example 666] | 6560 | 1.6 | 0.73
Cc1cc(-c2[nH]c3ccc(C4CNCCO4)nc3c2C(C)C)cn(C)c1=O (stereo not drawn) [Example 669] | 31600 | 5.6 | 7.4
COc1cc(-c2[nH]c3ccc(C4CN(C(=O)CCN(C)C)CCO4)nc3c2C(C)C)cn2ncnc12 (stereo not drawn) [Example 672] | 6240 | 90 | 4.7
Cc1c(-c2[nH]c3ccc(C4CN(CCS(C)(=O)=O)CCO4)nc3c2C(C)C)cn2ncnc2c1C (stereo not drawn) [Example 674] | > 50000 | 48 | 32
Cc1cc(-c2[nH]c3ccc(C4CNCCO4)nc3c2C(C)C)cn(C)c1=O (stereo not drawn) [Example 675] | 14500 | 4.6 | 9.7
COc1cc(-c2[nH]c3ccc(C4CNCCO4)nc3c2C(C)C)cn2ncnc12 (stereo not drawn) [Example 676] | 5720 | 2.5 | 1
Cc1cc(-c2[nH]c3ccc(C4CNCCO4)nc3c2C(C)C)cn(C)c1=O (stereo not drawn) [Example 679] | 20700 | 5.8 | 16
Cc1c(-c2[nH]c3ccc(C4CNCCN4)nc3c2C(C)C)cn2ncnc2c1C (stereo not drawn) [Example 680, 6-(3-isopropyl-5-(piperazin-2-yl)-1H-pyrrolo[3,2-b]pyridin-2-yl)-7,8-dimethyl-[1,2,4]triazolo[1,5-a]pyridine] | 1060 | 5.2 | 12
Cc1cc(-c2[nH]c3ccc(CCN4CCCCC4)nc3c2C(C)C)cn2ncnc12 [Example 681] | 4240 | 199 | 104

Now from value to compound:

IC50 [1] [nM] | IC50 [2] [nM] | IC50 [3] [nM] | Compound
21100 | 9.9 | 3.5 | Cc1c(-c2[nH]c3ccc(C4CN(C(=O)CN(C)C)CCO4)nc3c2C(C)C)cn2ncnc2c1C (stereo not drawn) [Example 663]
38500 | 14 | 22 | Cc1c(-c2[nH]c3ccc(C4CN(C5CCOCC5)CCO4)nc3c2C(C)C)cn2ncnc2c1C (stereo not drawn) [Example 664]
> 50000 | 711 | 145 | Cc1cc(-c2[nH]c3ccc(C4CN(C5COC5)CCO4)nc3c2C(C)C)cn(C)c1=O (stereo not drawn) [Example 667]
17500 | 22 | 1.7 | COc1cc(-c2[nH]c3ccc(C4CN(C(=O)CN(C)C)CCO4)nc3c2C(C)C)cn2ncnc12 (stereo not drawn) [Example 668]
> 50000 | 58 | 56 | Cc1cc(-c2[nH]c3ccc(C4CN(CC#N)CCO4)nc3c2C(C)C)cn(C)c1=O (stereo not drawn) [Example 670]
4480 | 2.1 | 1.4 | COc1cc(-c2[nH]c3ccc(C4CNCCO4)nc3c2C(C)C)cn2ncnc12 (stereo not drawn) [Example 671, 2-(3-isopropyl-2-(8-methoxy-[1,2,4]triazolo[1,5-a]pyridin-6-yl)-1H-pyrrolo[3,2-b]pyridin-5-yl)morpholine]
14400 | 6.9 | 5.2 | Cc1c(-c2[nH]c3ccc(C4CN(C)CCO4)nc3c2C(C)C)cn2ncnc2c1C (stereo not drawn) [Example 673]
> 50000 | 53 | 17 | Cc1cc(-c2[nH]c3ccc(C4CN(C(=O)CN(C)C)CCO4)nc3c2C(C)C)cn(C)c1=O (stereo not drawn) [Example 677]
> 50000 | 29 | 36 | Cc1cc(-c2[nH]c3ccc(C4CN(C(C)C)CCO4)nc3c2C(C)C)cn(C)c1=O (stereo not drawn) [Example 678]
